Reference: patent US8338422B2, “Indolin-2-ones and aza-indolin-2-ones” (Janssen Pharmaceutica NV, priority 2007, dated 2012)
Where “and” joins values, the source holds several entries; their conditions need not be identical. Identical values can stand only once.

Key:
Assay type in all cases: biochemical
CDK1/CyclinB (h) = CDK1/CyclinB (h) (Homo sapiens, UniProt P06493); assay: CDK1/CyclinB human kinase assay (FRET); conditions: for IC50: read-out: CDK1 pIC50 (converted)
Method: (§1) The in vitro inhibition of a panel of kinases was assessed using either the scintillation proximity assay (SPA) as described by Cook, N. D. et al., Advances in Experimental Medicine and Biology (1991), 36; p. 525-528; or the Fluorescence Resonance Energy Transfer (FRET) technology as described by Rodems, S. M. et al., Assay Drug Develop. Technol. (2002), 1; p. 9-19.
In the FRET technology the activity of the kinase of interest is measured using an appropriate substrate that is labeled with two fluorophores (coumarin and fluorescein). Phosphorylation is determined using a developing reagent comprising a protease that recognizes and cleaves nonphosphorylated peptides. Cleavage will disturb the FRET between the fluorescein and coumarin on the peptide. Uncleaved, phosphorylated peptides maintain the FRET signal. A ratiometric readout of the donor emission over the acceptor emission quantitates the reaction process.
(§2) All kinases are pre-diluted to a 10× working concentration prior to addition into the assay. The composition of the dilution buffer for each kinase is detailed below.
In a final reaction volume of 10 μl, CDK1/CyclinB (h) (0.2 μg/ml) is incubated with 50 mM Hepes pH 7.5, 10 mM MgCl2, 1 mM EGTA, 0.01% Brij-35, 2 μM Z'lyte Ser/Thr peptide 12 and 10 μM ATP (Invitrogen's FRET assay). After incubation of 60 minutes at room temperature, the reaction is stopped by addition of 5 μL development reagent containing protease mix. After 60 minutes room temperature the development reaction is stopped by adding 5 μl stop solution. The plate is then read in fluorescence plate reader with excitation: 390 nm and dual emission: 460 and 538 nm. Emission ratio is determined to the formula=Emission signal intensity at 460 nm/Emission signal intensity at 538 nm.

GSK3β (h) = GSK3β (h) (Homo sapiens, UniProt P49841); assay: GSK-3β human kinase assay (SPA); conditions: for IC50: read-out: GSK3B pIC50 (converted)
Chain of GSK3β (h) (P49841 whole entry): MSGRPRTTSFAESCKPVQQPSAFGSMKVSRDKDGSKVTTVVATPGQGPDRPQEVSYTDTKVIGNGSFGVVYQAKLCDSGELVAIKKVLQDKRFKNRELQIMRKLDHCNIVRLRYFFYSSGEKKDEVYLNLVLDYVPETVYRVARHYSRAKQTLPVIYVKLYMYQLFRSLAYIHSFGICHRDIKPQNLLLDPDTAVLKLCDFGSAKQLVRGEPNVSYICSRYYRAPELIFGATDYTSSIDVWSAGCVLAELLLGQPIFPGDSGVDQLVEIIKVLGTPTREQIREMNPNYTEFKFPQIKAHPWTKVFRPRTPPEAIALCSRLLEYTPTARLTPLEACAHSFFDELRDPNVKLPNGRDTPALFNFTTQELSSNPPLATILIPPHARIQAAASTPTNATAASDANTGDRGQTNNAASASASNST
Method: as §1
(§3) In the SPA technology the activity of the kinase of interest is measured using an appropriate biotinylated substrate that is incubated with the aforementioned kinase protein in the presence of (^33P) radiolabeled ATP. (^33P) Phosporylation of the substrate is subsequently measured through binding of the phosphorylated substrate to streptavidine coated beads that are based on the scintillant poly(vinyl toluene) (PVT-Beads). The scintillation intensity is detected by imaging on Leadseeker.
as §2
In a final reaction volume of 30 μl, GSK3β (h) (1 μg/ml) is incubated with 25 mM Tris pH 7.4, 10 mM MgCl2, 1 mM DTT, 1 μM peptide Biotin-KRREILSRRPSYR-OH, 1 μM ATP and 2 nM [γ-^33P-ATP] (6.0 μCi/ml). After incubation of 60 minutes at room temperature, the reaction is stopped by addition of […] of stop solution containing 8.7 mM EDTA, BSA 0.17%, 0.17% Triton X-100, 6.25 mg/ml SPA beads (GE-healthcare). The plate is centriguged and read for Scintillation imaging on Leadseeker.

PLK4 (h) = PLK4 (h) (Homo sapiens, UniProt O00444); assay: PLK-4 human kinase assay (SPA); conditions: for IC50: read-out: PLK4 pIC50 (converted)
Chain of PLK4 (h) (O00444 whole entry): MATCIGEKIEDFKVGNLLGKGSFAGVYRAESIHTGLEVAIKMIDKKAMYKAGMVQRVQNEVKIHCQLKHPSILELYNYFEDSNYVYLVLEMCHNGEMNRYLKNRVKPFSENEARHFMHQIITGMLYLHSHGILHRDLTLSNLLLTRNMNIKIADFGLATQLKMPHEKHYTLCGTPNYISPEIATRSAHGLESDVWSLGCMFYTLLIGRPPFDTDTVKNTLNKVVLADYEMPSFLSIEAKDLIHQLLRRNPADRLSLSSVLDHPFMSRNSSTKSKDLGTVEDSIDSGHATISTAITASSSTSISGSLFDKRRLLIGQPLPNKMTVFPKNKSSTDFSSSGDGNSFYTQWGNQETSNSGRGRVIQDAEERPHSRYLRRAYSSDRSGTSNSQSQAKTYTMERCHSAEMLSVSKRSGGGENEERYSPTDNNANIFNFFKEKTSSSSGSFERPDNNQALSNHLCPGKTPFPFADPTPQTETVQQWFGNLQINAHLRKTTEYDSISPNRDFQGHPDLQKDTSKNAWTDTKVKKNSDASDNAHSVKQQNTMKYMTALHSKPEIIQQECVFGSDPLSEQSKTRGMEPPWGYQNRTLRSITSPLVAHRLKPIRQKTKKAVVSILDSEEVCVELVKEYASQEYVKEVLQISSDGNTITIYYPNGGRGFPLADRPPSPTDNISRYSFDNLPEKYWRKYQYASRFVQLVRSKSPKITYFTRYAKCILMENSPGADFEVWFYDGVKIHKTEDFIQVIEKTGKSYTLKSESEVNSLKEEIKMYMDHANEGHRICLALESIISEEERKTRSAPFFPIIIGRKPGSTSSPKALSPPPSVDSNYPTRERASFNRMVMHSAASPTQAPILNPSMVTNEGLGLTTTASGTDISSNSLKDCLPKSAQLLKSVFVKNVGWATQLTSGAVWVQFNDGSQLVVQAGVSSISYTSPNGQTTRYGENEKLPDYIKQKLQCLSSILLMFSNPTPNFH
Method: as §1, §3, §2
In a final reaction volume of 30 μl PLK4 (h) (19 μg/ml) is incubated with 50 mM Hepes pH 8.0, 10 mM MgCl2, 50 mM NaCl, 1 mM NaF, 1 mM DTT, 10 μM of peptide Biotin-RPRGQRDSSYYWE-OH, 1 μM ATP and 2 nM [γ-^33P-ATP] (6.0 μCi/ml). After incubation of 60 minutes at room temperature, the reaction is stopped by addition of 40 μl, of stop solution containing 8.7 mM EDTA, BSA 0.17%, 0.17% Triton X-100, 1.7 mg/ml SPA beads (GE-healthcare). The plate is centriguged and read for Scintillation imaging on Leadseeker.

AuroraB (h) = AuroraB (h) (Homo sapiens, UniProt Q96GD4); assay: Aurora-B human kinase assay (SPA); conditions: for IC50: read-out: AuroraB pIC50 (converted)
Chain of AuroraB (h) (Q96GD4 whole entry): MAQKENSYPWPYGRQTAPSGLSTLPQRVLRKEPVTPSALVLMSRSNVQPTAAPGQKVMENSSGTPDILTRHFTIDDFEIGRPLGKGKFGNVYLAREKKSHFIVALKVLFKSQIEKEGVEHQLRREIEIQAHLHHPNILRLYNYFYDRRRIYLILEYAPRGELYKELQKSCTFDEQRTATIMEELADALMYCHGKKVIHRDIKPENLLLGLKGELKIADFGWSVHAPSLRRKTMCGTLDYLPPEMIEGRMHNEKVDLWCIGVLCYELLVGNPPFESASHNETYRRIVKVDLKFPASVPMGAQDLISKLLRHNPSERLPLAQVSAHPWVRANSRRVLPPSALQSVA
Method: as §1, §3, §2
In a final reaction volume of 30 μl, AuroraB (h) (0.5 μg/ml) is incubated with 60 mM Hepes pH 7.5, 3 mM MgCl2, 3 mM MnCl2, 3 μM Na3VO4, 0.05 mg/ml PEG, 2 mM DTT, 3 μM Biotin-[…]-OH, 0.5 μM ATP and 2.2 nM [γ-^33P-ATP] (6.8 μCi/ml). After incubation of 60 minutes at room temperature, the reaction is stopped by addition of 40 μL of stop solution containing 8.7 mM EDTA, BSA 0.17%, 0.17% Triton X-100, 5 mg/ml SPA beads (GE-healthcare). The plate is centriguged and read for Scintillation imaging on Leadseeker.

Chain of CDK1/CyclinB (h) (P06493 whole entry): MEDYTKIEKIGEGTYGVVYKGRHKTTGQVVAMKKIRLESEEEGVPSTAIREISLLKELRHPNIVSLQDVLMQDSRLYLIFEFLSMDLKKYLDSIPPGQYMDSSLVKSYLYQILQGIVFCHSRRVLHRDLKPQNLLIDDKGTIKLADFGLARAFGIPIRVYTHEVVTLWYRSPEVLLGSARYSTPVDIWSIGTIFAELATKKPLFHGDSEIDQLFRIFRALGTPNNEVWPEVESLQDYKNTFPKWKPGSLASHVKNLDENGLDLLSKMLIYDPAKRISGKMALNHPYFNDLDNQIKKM
Chain of CDK1/CyclinB (h) (P14635 whole entry partner): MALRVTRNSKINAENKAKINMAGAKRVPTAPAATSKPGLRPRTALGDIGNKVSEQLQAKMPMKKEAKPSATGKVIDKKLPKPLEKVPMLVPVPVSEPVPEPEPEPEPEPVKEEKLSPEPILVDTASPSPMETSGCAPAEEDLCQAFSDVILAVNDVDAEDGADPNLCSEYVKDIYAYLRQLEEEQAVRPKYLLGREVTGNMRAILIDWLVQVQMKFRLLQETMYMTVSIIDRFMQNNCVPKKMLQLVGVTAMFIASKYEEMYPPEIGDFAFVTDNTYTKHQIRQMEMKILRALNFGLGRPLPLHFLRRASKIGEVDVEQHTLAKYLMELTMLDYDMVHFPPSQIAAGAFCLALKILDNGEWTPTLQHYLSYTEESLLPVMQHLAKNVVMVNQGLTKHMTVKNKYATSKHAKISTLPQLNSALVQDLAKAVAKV

Row | SMILES | CDK1 pIC50 (CDK1/CyclinB (h)) | GSK3B pIC50 (GSK3β (h)) | PLK4 pIC50 (PLK4 (h)) | AuroraB pIC50 (AuroraB (h)) | IC50 (CDK1/CyclinB (h)) | IC50 (GSK3β (h)) [µM] | IC50 (PLK4 (h)) [µM] | IC50 (AuroraB (h)) [µM]
1 | COc1ccc2cc1OCCCCCCC(=O)N(C)CCNc1ncnc3c1C(=CN2)C(=O)N3 (mixture of isomers) [Compound 76] | <5 | 6.54 | 5.72 | 6.28 | – | – | – | –
2 | CN1CCCN(C)c2ncnc3c2C(=CNc2ccc(Cl)c(c2)OCCCC1=O)C(=O)N3 (mixture of isomers) [Compound 86] | <5 | 6.42 | 5.9 | 5.47 | – | – | – | –
3 | COc1ccc2cc1CN(C)CCCCC(=O)N(C)CCCN(C)c1ncnc3c1C(=CN2)C(=O)N3 (mixture of isomers) [Compound 87] | <5 | 6.17 | <5 | <5 | – | – | – | –
4 | CN1CCCN(C)c2ncnc3c2C(=CNc2cccc(c2)OCCCC1=O)C(=O)N3 (mixture of isomers) [Compound 88] | <5 | 6.26 | 5.85 | 5.33 | – | – | – | –
5 | COc1ccc2cc1CN(C)CCCCCC(=O)N(C)CCCN(C)c1ncnc3c1C(=CN2)C(=O)N3 (mixture of isomers) [Compound 89] | <5 | <5 | <5 | <5 | – | – | – | –
6 | CN1CC(=O)N2CCN(CC2)c2cccc3c2/C(=C/Nc2cccc(c2)S1(=O)=O)C(=O)N3 [Compound 2] | – | – | – | – | 5.62 µM | 1.17 | 4.57 | > 10
7 | COc1cc2cc(c1OC)CN(C)CCCC(=O)N(C)CCCNc1ncnc3c1/C(=C/N2)C(=O)N3 [Compound 6] | – | – | – | – | ~10 µM | > 10 | 6.17 | > 10
8 | CN1CCCC(=O)N(C)CCCNc2ncnc3c2/C(=C/Nc2ccc(N4CCOCC4)c(c2)C1)C(=O)N3 [Compound 7] | – | – | – | – | 1.7 µM | 0.0741 | 0.759 | > 10
9 | CN1CCNc2ncnc3c2/C(=C/Nc2ccc(N4CCOCC4)c(c2)OCCCC1=O)C(=O)N3 [Compound 8] | – | – | – | – | > 10 µM | > 10 | > 10 | > 10
10 | CN1CCC(=O)NCC#Cc2cccc3c2/C(=C/Nc2cccc(c2)S(=O)(=O)N(C)CC1=O)C(=O)N3 [Compound 21] | – | – | – | – | > 10 µM | 4.68 | 1.86 | > 10
11 | N#Cc1ccc2cc1OCCCCC(=O)N1CCN(CC1)c1ncnc3c1/C(=C/N2)C(=O)N3 [Compound 26] | – | – | – | – | > 10 µM | 2.63 | > 10 | > 10
12 | CN1CCNc2ncnc3c2/C(=C/Nc2ccc(Cl)c(c2)OCCCCC1=O)C(=O)N3 [Compound 56] | – | – | – | – | ~6.76 µM and 6.76 µM | 0.166 | 3.47 | 0.759
13 | CN1CCNc2ncnc3c2/C(=C/Nc2ccc(Cl)c(c2)OCCCCCC1=O)C(=O)N3 [Compound 57] | – | – | – | – | > 10 µM | 0.263 | 4.79 | 1.07
14 | CN1CCNc2ncnc3c2/C(=C/Nc2cccc(c2)OCCCCCCC1=O)C(=O)N3 [Compound 59] | – | – | – | – | > 10 µM | 1.05 | 4.37 | 5.13
15 | CN1CCNc2ncnc3c2/C(=C/Nc2ccc(Cl)c(c2)OCCCC1=O)C(=O)N3 [Compound 60] | – | – | – | – | 0.229 µM | 0.263 | 1.74 | 0.891
16 | CN1CCCNc2ncnc3c2/C(=C/Nc2ccc(Cl)c(c2)OCCCCCC1=O)C(=O)N3 [Compound 64] | – | – | – | – | > 10 µM | 0.0427 | 2.14 | 0.794

Row | SMILES | CDK1 pIC50 (CDK1/CyclinB (h)) | GSK3B pIC50 (GSK3β (h)) | PLK4 pIC50 (PLK4 (h)) | AuroraB pIC50 (AuroraB (h)) | IC50 (CDK1/CyclinB (h)) | IC50 (GSK3β (h)) [µM] | IC50 (PLK4 (h)) [µM] | IC50 (AuroraB (h)) [µM]
17 | CN1CCCNc2ncnc3c2/C(=C/Nc2ccc(Cl)c(c2)OCCCCCCC1=O)C(=O)N3 [Compound 65] | – | – | – | – | > 10 µM | 1.38 | 8.91 | > 10
18 | COc1ccc2cc1OCCCCCC(=O)N(C)CCCNc1ncnc3c1/C(=C/N2)C(=O)N3 [Compound 66] | – | – | – | – | 2.34 µM | 0.0776 | 0.479 | 0.347
19 | COc1ccc2cc1CN(C)CCCCC(=O)N(C)CCCNc1ncnc3c1/C(=C/N2)C(=O)N3 [Compound 67] | – | – | – | – | 0.603 µM | 0.178 | 5.62 | > 10
20 | COc1ccc2cc1OCCCCCCC(=O)N(C)CCCNc1ncnc3c1/C(=C/N2)C(=O)N3 [Compound 72] | – | – | – | – | > 10 µM | 0.575 | 1.45 | 1.91
21 | CN1CCCC(=O)N(C)CCCNc2ncnc3c2/C(=C/Nc2cccc(c2)C1)C(=O)N3 [Compound 73] | – | – | – | – | 1.78 µM | 0.851 | 3.72 | > 10
22 | CN1CCCCCCC(=O)N(C)CCCNc2ncnc3c2/C(=C/Nc2cccc(c2)C1)C(=O)N3 [Compound 74] | – | – | – | – | > 10 µM | > 10 | 5.62 | > 10
23 | COc1ccc2cc1CN(C)CCCCC(=O)N(C)CCNc1ncnc3c1/C(=C/N2)C(=O)N3 [Compound 75] | – | – | – | – | 5.37 µM | 0.562 | 5.89 | > 10
24 | CN1CCNc2ncnc3c2/C(=C/Nc2ccc(Cl)c(c2)OCCCCCCC1=O)C(=O)N3 [Compound 78] | – | – | – | – | > 10 µM | 2.19 | > 10 | 7.59
25 | CN1CCCCC(=O)N(C)CCNc2ncnc3c2/C(=C/Nc2cccc(c2)C1)C(=O)N3 [Compound 79] | – | – | – | – | 8.91 µM | 0.813 | 3.31 | 9.12
26 | CN1CCCCCC(=O)N(C)CCNc2ncnc3c2/C(=C/Nc2cccc(c2)C1)C(=O)N3 [Compound 80] | – | – | – | – | > 10 µM | 4.68 | 1.41 | > 10
27 | CN1CCCCCC(=O)N(C)CCCNc2ncnc3c2/C(=C/Nc2cccc(c2)C1)C(=O)N3 [Compound 81] | – | – | – | – | > 10 µM | 2.75 | 1.07 | > 10
28 | CN1CCCC(=O)N(C)CCNc2ncnc3c2/C(=C/Nc2cccc(c2)C1)C(=O)N3 [Compound 82] | – | – | – | – | > 10 µM | 1.05 | 6.17 | > 10
29 | CN1CCCCCCC(=O)N(C)CCNc2ncnc3c2/C(=C/Nc2cccc(c2)C1)C(=O)N3 [Compound 83] | – | – | – | – | > 10 µM | 2.19 | 1.66 | > 10
30 | CN1CCCC(=O)N(C)CCCN(C)c2ncnc3c2/C(=C/Nc2ccc(Cl)c(c2)C1)C(=O)N3 [Compound 90] | – | – | – | – | > 10 µM | 0.617 | 5.5 | > 10
31 | CN1CCCCC(=O)N(C)CCCN(C)c2ncnc3c2/C(=C/Nc2ccc(Cl)c(c2)C1)C(=O)N3 [Compound 91] | – | – | – | – | > 10 µM | 0.977 | > 10 | > 10
32 | CN1CCN(c2ccc3cc2CN(C)CCCCC(=O)N(C)CCNc2ncnc4c2/C(=C/N3)C(=O)N4)CC1 [Compound 92] | – | – | – | – | > 10 µM | 1.48 | 1.29 | > 10
